# Test results taken from paper PMC6535718 (Journal of the American Chemical Society, 2019).
# Read-outs that look alike come from different tables or passages of the source.
# Assays:
# P. aeruginosa = conditions: cited from earlier work
# P. aeruginosa PAO1 = test: Effect of analogs on the potency of fluoroquinolone antibiotics, strain PAO1; assay type: cell-based, Pseudomonas aeruginosa; conditions: PAO1, ciprofloxacin 0.25 μg/mL, 18 h, M63 + 4 μM Fe
# [1] = fluoroquinolone at the reported MIC, Figure 9 legend
SMILES,reported MIC (P. aeruginosa; [1]),reported MIC (P. aeruginosa),"% survival relative to untreated control, ciprofloxacin only (P. aeruginosa PAO1)"
C[C@H]1COc2c(N3CCN(C)CC3)c(F)cc3c(=O)c(C(=O)O)cn1c23 [levofloxacin],0.5 µg/mL,,
O=C(O)c1cn(C2CC2)c2cc(N3CCNCC3)c(F)cc2c1=O [ciprofloxacin],,0.25 µg/mL,approximately 10%
CCn1cc(C(=O)O)c(=O)c2cc(F)c(N3CCNCC3)cc21 [norfloxacin],0.9 µg/mL,,
